From patent US20120115724A1, “METHOD OF CONTROLLING UNDESIRED VEGETATION” (SYNGENTA CROP PROTECTION LLC, priority 2009, published 2012)

How the values were obtained:
[1] = test system: Alopecurus myosuroides (ALOMY); experiment: Post-emergence biological efficacy (Example 14); assay type: in vivo; settings: Alopecurus myosuroides, 312 h; post-emergence, 1,000 g/ha, after 13 days; read-out: Percentage damage ALOMY
Summary of the method: (§1)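 Post-emerg. spray, 250 or 1000 g/ha; vehicle acetone/H2O 50:50 + 0.5% Tween 20. Plants 8 d old at treatment; glasshouse 24/16 °C, 14 h photoperiod, 65% humidity. Scored d13, 0–100 damage.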

Setaria faberi (SETFA) [2] = experiment: Post-emergence biological efficacy (Example 14); assay type: in vivo; settings: Setaria faberi, 312 h; post-emergence, 1,000 g/ha, after 13 days; read-out: Percentage damage SETFA
Summary of the method: as §1

[3] = test system: Amaranthus retroflexus (AMARE); experiment: Post-emergence biological efficacy (Example 14); assay type: in vivo; settings: Amaranthus retroflexus, 312 h; post-emergence, 1,000 g/ha, after 13 days; read-out: Percentage damage AMARE
Summary of the method: as §1

Solanum nigrum (SOLNI) [4] = experiment: Post-emergence biological efficacy (Example 14); assay type: in vivo; settings: Solanum nigrum, 312 h; post-emergence, 1,000 g/ha, after 13 days; read-out: Percentage damage SOLNI
Summary of the method: as §1

[5] = test system: Ipomea hederaceae (IPOHE); experiment: Post-emergence biological efficacy (Example 14); assay type: in vivo; settings: Ipomoea hederacea, 312 h; post-emergence, 1,000 g/ha, after 13 days; read-out: Percentage damage IPOHE
Summary of the method: as §1

[6] = test system: Echinochloa crus-galli (ECHCG); experiment: Post-emergence biological efficacy (Example 14); assay type: in vivo; settings: Echinochloa crus-galli, 312 h; post-emergence, 1,000 g/ha, after 13 days; read-out: Percentage damage ECHCG
Summary of the method: as §1

CHEAL Chenopodium album = experiment: Post-emergence crop and weed test (Example 15); assay type: in vivo; settings: 360 h, 125 g/ha, after 15 days, read-out: Percentage damage CHEAL
Summary of the method: (§2)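 Plants grown 14 days in glasshouse pots (22/16 °C day/night, 16 h light, 65% humidity) were sprayed post-emergence with compound formulated as a 5% stock in acetone/Emulsogen EL/NMP/DPG-monoethyl ether, diluted in water with 0.2% X-77. Damage was scored after 15 days (0 = none, 100 = total).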

[7] = test system: EPHHL Euphorbia heterophylla; experiment: Post-emergence crop and weed test (Example 15); assay type: in vivo; settings: 360 h, 125 g/ha, after 15 days, read-out: Percentage damage EPHHL
Summary of the method: as §2

GLXMA Soybean = experiment: Post-emergence crop and weed test (Example 15); assay type: in vivo; settings: Glycine max, 360 h, 125 g/ha, after 15 days, read-out: Percentage damage GLXMA
Summary of the method: as §2

[8] = test system: POLCO Polygonum convolvulus; experiment: Post-emergence crop and weed test (Example 15); assay type: in vivo; settings: Fallopia convolvulus, 360 h, 125 g/ha, after 15 days, read-out: Percentage damage POLCO
Summary of the method: as §2

SINAR Sinapis arvensis = experiment: Post-emergence crop and weed test (Example 15); assay type: in vivo; settings: Mutarda arvensis, 360 h, 125 g/ha, after 15 days, read-out: Percentage damage SINAR
Summary of the method: as §2

[9] = test system: AMARE Amaranthus retroflexus; experiment: Post-emergence crop and weed test (Example 15); assay type: in vivo; settings: 360 h, 125 g/ha, after 15 days, read-out: Percentage damage AMARE
Summary of the method: as §2

VERPE Veronica persica = experiment: Post-emergence crop and weed test (Example 15); assay type: in vivo; settings: 360 h, 125 g/ha, after 15 days, read-out: Percentage damage VERPE
Summary of the method: as §2

SIDSP Sida spinosa = experiment: Post-emergence crop and weed test (Example 15); assay type: in vivo; settings: 360 h, 125 g/ha, after 15 days, read-out: Percentage damage SIDSP
Summary of the method: as §2

GALAP Galium aparine = experiment: Post-emergence crop and weed test (Example 15); assay type: in vivo; settings: 360 h, 125 g/ha, after 15 days, read-out: Percentage damage GALAP
Summary of the method: as §2

[10] = test system: XANST Xanthium strumarium; experiment: Post-emergence crop and weed test (Example 15); assay type: in vivo; settings: 360 h, 125 g/ha, after 15 days, read-out: Percentage damage XANST
Summary of the method: as §2

KCHSC Kochia scoparia = experiment: Post-emergence crop and weed test (Example 15); assay type: in vivo; settings: Bassia scoparia, 360 h, 125 g/ha, after 15 days, read-out: Percentage damage KCHSC
Summary of the method: as §2

IPOHE Ipomoea hederacea = experiment: Post-emergence crop and weed test (Example 15); assay type: in vivo; settings: 360 h, 125 g/ha, after 15 days, read-out: Percentage damage IPOHE
Summary of the method: as §2

[11] = test system: ABUTH Abutilon theophrasti; experiment: Post-emergence crop and weed test (Example 15); assay type: in vivo; settings: 360 h, 125 g/ha, after 15 days, read-out: Percentage damage ABUTH
Summary of the method: as §2

[12] = test system: Alopecurus myosuroides (ALOMY); experiment: Pre-emergence biological efficacy (Example 13); assay type: in vivo; settings: Alopecurus myosuroides, 312 h; pre-emergence, 1,000 g/ha, after 13 days; read-out: Percentage damage ALOMY
Summary of the method: (§3)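 Phytotoxicity was rated on a 0 (no damage) to 100 (total damage) scale 13 days after treatment. Test compound was sprayed at 250 or 1000 g/ha onto soil-sown pots one day after sowing, using acetone/water (50:50) with 0.5% Tween 20 diluted in water.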

Setaria faberi (SETFA) [13] = experiment: Pre-emergence biological efficacy (Example 13); assay type: in vivo; settings: Setaria faberi, 312 h; pre-emergence, 1,000 g/ha, after 13 days; read-out: Percentage damage SETFA
Summary of the method: as §3

[14] = test system: Amaranthus retroflexus (AMARE); experiment: Pre-emergence biological efficacy (Example 13); assay type: in vivo; settings: Amaranthus retroflexus, 312 h; pre-emergence, 1,000 g/ha, after 13 days; read-out: Percentage damage AMARE
Summary of the method: as §3

Solanum nigrum (SOLNI) [15] = experiment: Pre-emergence biological efficacy (Example 13); assay type: in vivo; settings: Solanum nigrum, 312 h; pre-emergence, 1,000 g/ha, after 13 days; read-out: Percentage damage SOLNI
Summary of the method: as §3

[16] = test system: Ipomea hederaceae (IPOHE); experiment: Pre-emergence biological efficacy (Example 13); assay type: in vivo; settings: Ipomoea hederacea, 312 h; pre-emergence, 1,000 g/ha, after 13 days; read-out: Percentage damage IPOHE
Summary of the method: as §3

[17] = test system: Echinochloa crus-galli (ECHCG); experiment: Pre-emergence biological efficacy (Example 13); assay type: in vivo; settings: Echinochloa crus-galli, 312 h; pre-emergence, 1,000 g/ha, after 13 days; read-out: Percentage damage ECHCG
Summary of the method: as §3

melting point: 100 to 102 °C
Structure (SMILES): C=Cc1c(NCc2ccco2)nc(-c2ccc(Cl)c(OC)c2F)nc1C(=O)OC [Compound 6, 2-(4-chloro-2-fluoro-3-methoxyphenyl)-5-ethenyl-4-(furan-2-ylmethylamino)-6-methoxycarbonylpyrimidine]
pest or weed control at 1000 g/ha [1]: 80%
pest or weed control at 1000 g/ha (Setaria faberi (SETFA) [2]): 90%
pest or weed control at 1000 g/ha [3]: 100%
pest or weed control at 1000 g/ha (Solanum nigrum (SOLNI) [4]): 90%
pest or weed control at 1000 g/ha [5]: 80%
pest or weed control at 1000 g/ha [6]: 80%
pest or weed control at 125 g/ha (CHEAL Chenopodium album): 90%
pest or weed control at 125 g/ha [7]: 90%
plant injury at 125 g/ha (GLXMA Soybean): 10%
pest or weed control at 125 g/ha [8]: 70%
pest or weed control at 125 g/ha (SINAR Sinapis arvensis): 60%
pest or weed control at 125 g/ha [9]: 100%
pest or weed control at 125 g/ha (VERPE Veronica persica): 70%
pest or weed control at 125 g/ha (SIDSP Sida spinosa): 80%
pest or weed control at 125 g/ha (GALAP Galium aparine): 70%
pest or weed control at 125 g/ha [10]: 100%
pest or weed control at 125 g/ha (KCHSC Kochia scoparia): 60%
pest or weed control at 125 g/ha (IPOHE Ipomoea hederacea): 80%
pest or weed control at 125 g/ha [11]: 80%
pest or weed control at 1000 g/ha [12]: 70%
pest or weed control at 1000 g/ha (Setaria faberi (SETFA) [13]): 80%
pest or weed control at 1000 g/ha [14]: 100%
pest or weed control at 1000 g/ha (Solanum nigrum (SOLNI) [15]): 100%
pest or weed control at 1000 g/ha [16]: 90%
pest or weed control at 1000 g/ha [17]: 80%
